Tests used:
A498 = assay: Cytotoxicity against human A498 cells assessed as reduction in cell viability after 48 hrs by MTT assay; details: A498, 48 h
CAKI-1 = assay: Cytotoxicity against human CAKI-1 cells assessed as reduction in cell viability after 48 hrs by MTT assay; details: CAKI-1, 48 h
[1] = Cytotoxicity against human RPTEC/TERT1 cells assessed as reduction in cell viability after 48 hrs by MTT assay

| Structure (SMILES) | IC50 (A498) [µM] | IC50 (CAKI-1) [µM] | IC50 [1] [µM] |
| --- | --- | --- | --- |
| CC(=O)c1s/c(=N\N=C2/C(=O)N(Cc3ccccc3)c3ccc(Cl)cc32)[nH]c1C | 6.27 | 12.8 |  |
| O=C1/C(=N\N=c2\[nH]c(-c3ccc([N+](=O)[O-])cc3)cs2)c2cc(Cl)ccc2N1Cc1ccccc1 | 24.7 | 5.78 |  |
| CCOC(=O)/C(=N/Nc1ccc(C)cc1)S/C(N)=N\N=C1/C(=O)N(Cc2ccccc2)c2ccc(Cl)cc21 | 2.88 | 3.9 |  |
| CCOC(=O)c1s/c(=N\N=C2/C(=O)N(Cc3ccccc3)c3ccc(Cl)cc32)[nH]c1C | 1.23 | 3.31 | 49.8 |
| CCN(CC)CCNC(=O)c1c(C)[nH]c(/C=C2\C(=O)Nc3ccc(F)cc32)c1C [SUNITINIB] | 1.25 | 4.93 | 16.9 |
| NC1=NNC(=O)/C1=C1/C(=O)N(Cc2ccccc2)c2ccc(Cl)cc21 | 8.53 | 0.82 |  |
| O=C1CS/C(=N\N=C2/C(=O)N(Cc3ccccc3)c3ccc(Cl)cc32)N1 | 3.45 | 35.6 |  |

Source: ChEMBL document CHEMBL4706585, “Novel 2-indolinone thiazole hybrids as sunitinib analogues: Design, synthesis, and potent VEGFR-2 inhibition with potential anti-renal cancer activity” (Eur J Med Chem, 2020)
